Measurements published in patent US4446149A, “Medicine for treatment of cervical erosion” (priority 1981, dated 1984).
Entries after “also recorded” stand apart in the source; their conditions may differ. Read-outs that look alike come from different tables or passages of the source.

Experiments:
[1] = cited from earlier work
[2] = Acute toxicity of L-carnosine (peritoneal and oral); type: in vivo; conditions: mouse, in vivo; for LD50 at 72 h: dd strain male mice
Procedure: (§1) […] LD50 was computed by the Van der Waerden method based on the number of dead mice after 72 hours. In the examination, L-carnosine was diluted with a physiological saline so that its administration concentration would be 0.1-0.3 ml/10 g.

dd strain male mice = experiment: as above; type: in vivo
Procedure: as §1

[3] = cited from earlier work; remark: listed apart in the source
carnosinase = conditions: taken into the body; with the aid of carnosinase; cited from earlier work
[4] = peritoneal 15,000 mg/kg, after about 30 minutes

SMILES: NCCC(=O)N[C@@H](Cc1cnc[nH]1)C(=O)O [L-carnosine, β-alanyl-L-histidine]
- pH value of its aqueous solution [1]: 8.0-8.5
- mortality at 12 h ([2]; 15000 mg/kg, oral 15,000 mg/kg, after 12 hours, read-out: mice died): 10%
- mortality at 2 h ([2]; ip, 15000 mg/kg, peritoneal 15,000 mg/kg, after 2 hours, read-out: experimental animals died): 80%
- LD50 at 72 h ([2]; ip, peritoneal, Van der Waerden method, 72 hours (75-hour value elsewhere in the source), read-out: LD50 at 95% level of confidence): 9090 mg/kg
- LD50 at 72 h ([2]; oral, (the minimum lethal dose), read-out: LD50): > 14900 mg/kg
- toxicity (overall) (dd strain male mice; acute toxicity test, dd strain male mice): quite low toxicity
- appreciable effect (symptoms) (dd strain male mice; oral 15,000 mg/kg): did not show any appreciable effect
- symptoms when further advanced (dd strain male mice; peritoneal 15,000 mg/kg): the animals repeated horizontal rollings and upon contact stimulation the reflex became hyperreactive with an attendant spasm, leading to ultimate death
- symptoms: raising of the tails and clonospasm (dd strain male mice; peritoneal 15,000 mg/kg, about 30 minutes after administration): seen in as many as half of the experimental animals
- experimental animals died (dd strain male mice; peritoneal 15,000 mg/kg, after 1 hour and 30 minutes): Half
- experimental animals died (dd strain male mice; peritoneal 15,000 mg/kg, after 5 hours): all of the experimental animals died
- symptoms: frontal or escape reflexes (dd strain male mice; [4]): no frontal or escape reflexes
- symptoms: spontaneous movement and respiration (dd strain male mice; [4]): a reduction in spontaneous movement accompanied by an irregular or decreased number of respirations
- LD100 (dd strain male mice; peritoneal, mice): 15,000 mg/kg
- solubility in water [3]: easily soluble in water; also recorded: readily soluble in water
- metabolism (carnosinase): decomposed, with the aid of carnosinase, into L-histidine and β-alanine
